Measurements reported in US5502214A, “1,2-benzoquinones and methods for making and using same” (priority 1993, dated 1996).
Like-named read-outs stand apart in the source and are kept apart here.

Experiments:
[1] = tested on: EMT-6 mouse mammary tumor cells; assay: In vitro cytotoxicity screen (colony formation); assay type: cell-based; details: 1 hour drug exposure at 37° C., EMT-6 colony formation
Protocol: Cell Line and Culture. The cell line used in the screen was EMT-6 mouse mammary tumor cells in culture that were maintained in exponential growth in Waymouth's medium (I.S.I. Corp., Chicago, Ill.), supplemented with 15% newborn calf serum, penicillin (100 units/ml), and streptomycin (100 μg/ml) (Grand Island Biological Co., Grand Island, N.Y.). The doubling time of these cultures, growing at 37° C. in a 5% CO2 /95% air atmosphere, was 16-19 hours. In vitro plating efficiencies of control cultures were 65-80%.
Production of Hypoxia. To produce hypoxia, plastic flasks, containing exponentially growing monolayers of tumor cells in complete medium plus serum, were fitted with sterile rubber septums and exposed to a continuously flowing 95% N2 /5% CO2 humidified atmosphere for 4 hours at 37° C. as described by B. A. Teicher et al., Int. J. Radiat. Oncol. Biol. Phy., 11:937-940 (1985); and B. A. Teicher et al., Cancer Res., 41:73-81 (1981). Parallel flasks were maintained in 95% air/5% CO2. At the end of 4 hours, the drug specified in Table I below was added to the flasks by injection through the rubber septum without disturbing the hypoxia. […]
Drug Treatments. Exponentially growing cells were exposed to varying concentrations of the drugs specified in Table I below for 1 hour at 37° C. Non-drug-treated controls were handled identically. Drugs were prepared in sterile phosphate-buffered saline immediately before use and added to the cells in a small volume (50-100 μl). […] After treatment, the medium was removed, and the cultures were washed twice with phosphate buffered saline and suspended by trypsinization.
Cell Viability Measurements. Cell viability was measured by the ability of single cells to form colonies in vitro, as described by B. A. Teicher et al., Int. J. Radiat. Oncol. Biol. Phys., 11:937-940 (1985); and B. A. Teicher et al., Cancer Res., 41:73-81 (1981). Following treatment, suspensions of known cell numbers were plated in plastic Petri dishes and allowed to grow in a 37° C. incubator under standard culture conditions for 8-10 days. After this time interval, macroscopic colonies were stained with crystal violet in methanol containing 3.7% formaldehyde and were counted manually. Each experiment was repeated 3 times and each data point per experiment represents the results of 3 different dilutions of cells plated in triplicate.

[2] = tested on: L1210 leukemia; assay: In vivo antitumor test, L1210 leukemia implanted i.p. in DBA mice; details: for SURVIVAL: lifespan post tumor cell inoculation; for % ILS: vs untreated controls
Protocol: L1210 leukemia (10^6) cells were implanted intraperitoneally in DBA mice (Taconic Farms, Germantown, N.Y.) on day 0. Treatment with each drug was carried out daily for 5 days. The drugs were administered intraperitoneally at the doses shown on Table II below. Each treatment group had six animals and the experiment was carried out twice. The percent increase-in-lifespan (% ILS) is for the treated subjects compared with the untreated controls.
^a Drugs were administered i.p. daily on days 1-5.
^b Lifespan of the animals post tumor cell innoculation.

[3] = Mus musculus, EMT6, 1 h, Hypoxia, read-out: IC50
[4] = Mus musculus, EMT6, 1 h, Normal oxygenation, read-out: IC50
[5] = Mus musculus, EMT6, Normal oxygenation, read-out: IC90
[6] = 1.00 mg/kg i.p. daily on days 1-5
[7] = 2.50 mg/kg i.p. daily on days 1-5
[8] = 5.00 mg/kg i.p. daily on days 1-5
[9] = 10.00 mg/kg i.p. daily on days 1-5
[10] = Mus musculus, EMT6, 1 h, Hypoxia
[11] = Mus musculus, EMT6, 1 h, Normal oxygenation
[12] = 0.50 mg/kg i.p. daily on days 1-5
[13] = 1.25 mg/kg i.p. daily on days 1-5
[14] = 1.50 mg/kg i.p. daily on days 1-5
[15] = 2.00 mg/kg i.p. daily on days 1-5

| SMILES | IC90 ([1]; Hypoxia, read-out: IC90) | IC50 [1, 3] | IC50 [1, 4] | IC90 [1, 5] | SURVIVAL [2, 6] | % ILS [2, 6] | SURVIVAL [2, 7] | % ILS [2, 7] | SURVIVAL [2, 8] | % ILS [2, 8] | SURVIVAL [2, 9] | % ILS [2, 9] | further results |
| --- | --- | --- | --- | --- | --- | --- | --- | --- | --- | --- | --- | --- | --- |
| O=C1C=C(N2CCC2)C(N2CCC2)=CC1=O [4,5-Azetidinyl-1,2-Benzoquinone, 4,5-azetidinyl-1,2-benzoquinone] | > 500 µM | 400 µM | 500 µM | > 500 µM | 8.0 days | 8% | 7.8 days | 5% | 7.8 days | 5% | 6.4 days | toxic |  |
| O=C1C=C(N2CC2)C(N2CC2)=CC1=O [4,5-Aziridinyl-1,2-Benzoquinone, 4,5-aziridinyl-1,2-benzoquinone] |  |  |  |  | 13.4 days | 81% | 6.0 days | toxic |  |  |  |  | IC50 [1, 10]: 0.2 µM; IC90 [1, 10]: 1 µM; IC50 [1, 11]: 0.4 µM; IC90 [1, 11]: 1.1 µM; SURVIVAL [2, 12]: 12.6 days; % ILS [2, 12]: 70%; SURVIVAL [2, 13]: 13.6 days; % ILS [2, 13]: 84%; SURVIVAL [2, 14]: 13.8 days; % ILS [2, 14]: 86%; SURVIVAL [2, 15]: 11.8 days; % ILS [2, 15]: 59% |
| COC1=CC(=O)C(=O)C=C1OC [4,5-Methoxy-1,2-Benzoquinone, 4,5-Dimethoxy-1,2-benzoquinone, reference compound] | > 500 µM | > 500 µM | 500 µM | > 500 µM |  |  |  |  |  |  |  |  |  |
| O=C1C=C(N2CCCC2)C(N2CCCC2)=CC1=O [4,5-Pyrrolidinyl-1,2-Benzoquinone, 4,5-pyrrolidinyl-1,2-benzoquinone] | > 500 µM | > 500 µM | > 500 µM | > 500 µM | 8.0 days | 8% | 8.0 days | 8% | 7.6 days | 3% | 6.3 days | toxic |  |
| CCN(CC)C1=CC(=O)C(=O)C=C1N(CC)CC [4,5-bis-(Diethylamino)-1,2-Benzoquinone, 4,5-bis-(diethylamino)-1,2-benzoquinone] | > 500 µM | 400 µM | 500 µM | > 500 µM | 7.8 days | 5% | 8.4 days | 14% | 8.6 days | 16% | 7.8 days | 5% |  |
| COC1=CC(=O)C(=O)C=C1NCCCl [4-chloroethylamino-5-methoxy-1,2-benzoquinone] |  |  |  |  |  |  |  |  |  |  |  |  | IC50 [1, 10]: 110 µM; IC90 [1, 10]: 190 µM; IC50 [1, 11]: 125 µM; IC90 [1, 11]: 455 µM |
| CCOC(=O)NC1=C(N2CC2)C(=O)C(NC(=O)OCC)=C(N2CC2)C1=O [AZQ, 3,6-bis(ethylcarboxyamino)-2,5-diaziridinyl-1,4-benzoquinone, reference compound] |  | 7.5 µM | 5 µM |  |  |  |  |  |  |  |  |  | IC90 ([1]; Mus musculus, EMT6, 1 h, Hypoxia, read-out: IC90): 17.5 µM; IC90 ([1]; Mus musculus, EMT6, 1 h, Normal oxygenation, read-out: IC90): 15.5 µM |
